# Source: US20100069308A1, “Surfaces containing antibacterial polymers” (priority 2008, published 2010)
# System: Streptococcus pneumoniae
# Assay: not given
# Settings: cited from earlier work
row,Substance,MIC [µM]
1,H—(NLys-Nspe-Nspe)4-NH2 [ID 1],1.7 to 3.4

# System: Psuedomonas aeruginosa
# Assay: not given
# Settings: cited from earlier work
row,Substance,MIC [µM]
1,H—(NLys-Nspe-Nspe)4-NH2 [ID 1],28

# System: bacterial colonies
# Assay: Antibacterial activity in the presence of biological serum (FIG. 1, number of bacterial colonies vs concentration)
# Type: cell-based
# Settings: after 24 hours in biological serum
# Protocol: Due to their mechanism of action, such antibacterial peptides should not be susceptible to resistance. […] In FIG. 1, panels 100A and 100B show the number of bacterial colonies as a function of the concentration of pexiganan 101A/B and ID 1 103 A/B, after 2 and 24 hours respectively, in biological serum. […] Accordingly, a peptide alternative that kills bacteria by a mechanism similar to that of antibacterial peptides but without the biological susceptibility would provide greater protection against bacterial colonization.
# FIG. 1 depicts the activity of ID 1 and an antibacterial peptide (pexiganan) in the presence of biological serum.
row,Substance,Activity (number of bacterial colonies) in biological serum
1,H—(NLys-Nspe-Nspe)4-NH2 [ID 1],retains activity

# System: Haemophilus influenzae
# Assay: not given
# Settings: cited from earlier work
row,Substance,MIC [µM]
1,H—(NLys-Nspe-Nspe)4-NH2 [ID 1],6.9

# System: E. coli
# Assay: not given
# Settings: cited from earlier work
row,Substance,E. coli MIC [µM]
1,H-NLys-Nssb-Nspe-Nssb-Nspe-NLys-Nspe-NLys-Nssb-Nssb-Nspe-NLys-NH2 [ID 15],3.1
2,H—(NGlu-Nspe-Nspe)4-NH2 [ID 13],>219
3,H—(NLys)4-(Nspe)8-NH2 [ID 14],6.9
4,H—(NLys-Nrpe-Nrpe)4-NH2 [ID 3],3.5
5,H—(NLys-Nsmb-Nspe)4-NH2 [ID 7],7.4
6,H—(NLys-Nspe-Nspe)2-NH2 [ID 4],27
7,H—(NLys-Nspe-Nspe)3-NH2 [ID 5],9.1
8,H—(NLys-Nspe-Nspe)4-NH2 [ID 1],3.5
9,H—(NLys-Nspe-Nspe)5-NH2 [ID 6],5.5
10,H—(NLys-Nspe-Nspe-NGlu-Nspe-Nspe)2-NH2 [ID 12],>110
11,H—(NLys-Nspe-Nspe-NLys-Nspe-L-Pro-(NLys-Nspe-Nspe)2-NH2 [ID 11],3.1
12,H—(NLys-Nspe-Nspe-NLys-Nspe-NHis)2-NH2 [ID 10],3.5
13,H—(NLys-Nspe-Nspe-NLys-Nspe-Nsna)2-NH2 [ID 9],3.3
14,H—(NLys-Nssb-Nspe)4-NH2 [ID 2],31
15,H—(NLys-Nssb-Nspe-NLys-Nssb-Nsna)2-NH2 [ID 8],7.2

# System: Staphylococcus aureus
# Assay: not given
# Settings: cited from earlier work
row,Substance,MIC [µM]
1,H—(NLys-Nspe-Nspe)4-NH2 [ID 1],3.4

# System: Escherichia coli
# Assay: not given
# Settings: cited from earlier work
row,Substance,MIC [µM]
1,H—(NLys-Nspe-Nspe)4-NH2 [ID 1],14 to 28

# System: Enterococcus faecalis
# Assay: not given
# Settings: cited from earlier work
row,Substance,MIC [µM]
1,H—(NLys-Nspe-Nspe)4-NH2 [ID 1],3.4 to 6.9

# System: B. subtilis
# Assay: not given
# Settings: cited from earlier work
row,Substance,B. subtilis MIC
1,H-NLys-Nssb-Nspe-Nssb-Nspe-NLys-Nspe-NLys-Nssb-Nssb-Nspe-NLys-NH2 [ID 15],15 µM
2,H—(NGlu-Nspe-Nspe)4-NH2 [ID 13],>219 µM
3,H—(NLys)4-(Nspe)8-NH2 [ID 14],1.7 µM
4,H—(NLys-Nrpe-Nrpe)4-NH2 [ID 3],.88 µM
5,H—(NLys-Nsmb-Nspe)4-NH2 [ID 7],.95 µM
6,H—(NLys-Nspe-Nspe)2-NH2 [ID 4],27 µM
7,H—(NLys-Nspe-Nspe)3-NH2 [ID 5],1.2 µM
8,H—(NLys-Nspe-Nspe)4-NH2 [ID 1],.88 µM
9,H—(NLys-Nspe-Nspe)5-NH2 [ID 6],1.4 µM
10,H—(NLys-Nspe-Nspe-NGlu-Nspe-Nspe)2-NH2 [ID 12],6.9 µM
11,H—(NLys-Nspe-Nspe-NLys-Nspe-L-Pro-(NLys-Nspe-Nspe)2-NH2 [ID 11],1.6 µM
12,H—(NLys-Nspe-Nspe-NLys-Nspe-NHis)2-NH2 [ID 10],6.9 µM
13,H—(NLys-Nspe-Nspe-NLys-Nspe-Nsna)2-NH2 [ID 9],1.6 µM
14,H—(NLys-Nssb-Nspe)4-NH2 [ID 2],3.9 µM
15,H—(NLys-Nssb-Nspe-NLys-Nssb-Nsna)2-NH2 [ID 8],.93 µM
